Tested on: melanin production induced by α-MSH
Assay: Inhibition of melanin production induced by α-MSH
Format: cell-based
Conditions: for Melanin content (%), Mean: α-MSH 0.1 μM 24 hours + TA treat 24 hours, 0.2% DMSO, α-MSH group = 100.0
Text: This example explores the bioactivity of the synthesized oxyresveratrol compound in inhibiting melanin production as relative to commercial oxyresveratrol extracted from plant sources.

SMILES | Melanin content (%), Mean (TA conc. 32 μM) | Melanin content (%), Mean (TA conc. 128 μM) | Inhibitory activity on melanin production compared with the commercial material (in words) (e.g., at 128 μM) | Inhibition of melanin production induced by α-MSH (in words) (32 and 128 μM)
Oc1cc(O)cc(/C=C/c2ccc(O)cc2O)c1 [Synthetic, oxyresveratrol] | 75.7% | 38.5% | greater inhibitory activity | –
Oc1cc(O)cc(/C=C/c2ccc(O)cc2O)c1 [Commercial, oxyresveratrol] | 77.4% | 45.5% | – | inhibited melanin production

— patent US20250154089A1, “METHODS FOR PREPARING OXYRESVERATROL AND DERIVATIVES THEREOF” (Caliway Biopharmaceuticals Co., Ltd., priority 2023, published 2025)
